Experimental data as given in patent US20230059136A1, “THE COMPOUNDS AND COMPOSITIONS FOR TREATING CONDITIONS ASSOCIATED WITH NLRP ACTIVITY” (Novartis AG, priority 2018, published 2023).
Read-outs that look alike come from different tables or passages of the source.

Test system: IL-1β production in PMA-differentiated THP-1 cells
Experiment: IL-1β production in PMA-differentiated THP-1 cells stimulated with gramicidin (hTHP-1 assay containing 2% fetal bovine serum)
Type: cell-based, human
Settings: 2% fetal bovine serum, read-out: hTHP-1 IC50 (Average IC50 of compounds in hTHP-1 assay)
Method: Procedure 1: IL-1β Production in PMA-Differentiated THP-1 Cells Stimulated with Gramicidin.
THP-1 cells were purchased from the American Type Culture Collection and sub-cultured according to instructions from the supplier. Cells were cultured in complete RPMI 1640 (containing 10% heat inactivated FBS, penicillin (100 units/ml) and streptomycin (100 μg/ml)), and maintained in log phase prior to experimental setup. Prior to the experiment, compounds were dissolved in dimethyl sulfoxide (DMSO) to generate a 30 mM stock. The compound stock was first pre-diluted in DMSO to 3, 0.34, 0.042 and 0.0083 mM intermediate concentrations and subsequently spotted using Echo550 liquid handler into an empty 384-well assay plate to achieve desired final concentration (e.g. 100, 33, 11, 3.7, 1.2, 0.41, 0.14, 0.046, 0.015, 0.0051, 0.0017 μM). DMSO was backfilled in the plate to achieve a final DMSO assay concentration of 0.37%. The plate was then sealed and stored at room temperature until required.
THP-1 cells were treated with PMA (Phorbol 12-myristate 13-acetate) (20 ng/ml) for 16-18 hours. On the day of the experiment the media was removed and adherent cells were detached with trypsin for 5 minutes. Cells were then harvested, washed with complete RPMI 1640, spun down, and resuspended in RPMI 1640 (containing 2% heat inactivated FBS, penicillin (100 units/ml) and streptomycin (100 μg/ml). The cells were plated in the 384-well assay plate containing the spotted compounds at a density of 50,000 cells/well (final assay volume 50 μl). Cells were incubated with compounds for 1 hour and then stimulated with gramicidin (5 μM) (Enzo) for 2 hours. Plates were then centrifuged at 340 g for 5 min. Cell free supernatant (40 μL) was collected using a 96-channel PlateMaster (Gilson) and the production of IL-1β was evaluated by HTRF (cisbio). The plates were incubated for 18 h at 4° C. and read using the preset HTRF program (donor emission at 620 nm, acceptor emission at 668 nm) of the SpectraMax i3x spectrophotometer (Molecular Devices, software SoftMax 6). A vehicle only control and a dose titration of CRID3 (100-0.0017 μM) were run concurrently with each experiment.
Procedure 2: IL-1β Production in PMA-Differentiated THP-1 Cells Stimulated with Gramicidin.
THP-1 cells were purchased from the American Type Culture Collection and sub-cultured according to instructions from the supplier. Prior to experiments, cells were cultured in complete RPMI 1640 (containing 10% heat inactivated FBS, penicillin (100 units/ml) and streptomycin (100 μg/ml)), and maintained in log phase prior to experimental setup. Prior to the experiment THP-1 were treated with PMA (Phorbol 12-myristate 13-acetate) (20 ng/ml) for 16-18 hours. Compounds were dissolved in dimethyl sulfoxide (DMSO) to generate a 30 mM stock. On the day of the experiment the media was removed and adherent cells were detached with trypsin for 5 minutes. Cells were then harvested, washed with complete RPMI 1640, spun down, resuspended in RPMI 1640 (containing 2% heat inactivated FBS, penicillin (100 units/ml) and streptomycin (100 μg/ml). The cells were plated in a 384-well plate at a density of 50,000 cells/well (final assay volume 50 μl). Compounds were first dissolved in assay medium to obtain a 5× top concentration of 500 μM. 10 step dilutions (1:3) were then undertaken in assay medium containing 1.67% DMSO. 5× compound solutions were added to the culture medium to achieve desired final concentration (e.g. 100, 33, 11, 3.7, 1.2, 0.41, 0.14, 0.046, 0.015, 0.0051, 0.0017 μM). Final DMSO concentration was at 0.37%. Cells were incubated with compounds for 1 hour and then stimulated with gramicidin (5 μM) (Enzo) for 2 hours. Plates were then centrifuged at 340 g for 5 min. Cell free supernatant (40 μL) was collected using a 96-channel PlateMaster (Gilson) and the production of IL-1β was evaluated by HTRF (cisbio). A vehicle only control and a dose titration of CRID3 (100-0.0017 μM) were run concurrently with each experiment. […]

[1] = Homo sapiens, THP-1, Table B2, class symbols

IC50 (Table B2, class symbols) [µM]	Compound	other results
	2-(4-Fluoro-2,6-diisopropylphenyl)-N-(4-(2-hydroxypropan-2-yl)phenylsulfonimidoyl)acetamide [Example 1]	IC50 (Table B1, class symbols): 5 to 30 µM
	CC(C)c1cc(F)cc(C(C)C)c1C(C)C(=O)N=S(N)(=O)c1cnc(C(C)(C)O)s1 (racemic) [Example 193, (S, S) and (S, R)-N-(amino (2-(2-hydroxypropan-2-yl)thiazol-5-yl)(oxo)-λ^6-sulfaneylidene)-2-(4-fluoro-2,6-diisopropylphenyl) propanamide]	IC50 (Homo sapiens, THP-1, Table B1, cells printed as numeric bound): > 30 µM
0.2 to 1	CC(C)c1cc2c(c(C(C)C)c1CC(=O)N=S(N)(=O)c1ccn(CCO)n1)OC(F)(F)O2 (racemic) [Example 348, (R) and (S)—N-(amino(1-(2-hydroxyethyl)-1H-pyrazol-3-yl)(oxo)-λ^6-sulfaneylidene)-2-(2,2-difluoro-4,6-diisopropylbenzo[d][1,3]dioxol-5-yl)acetamide]	
5 to 30	CC(C)c1cc2c(c(C(C)C)c1CC(=O)N=S(N)(=O)c1ccn(CCO)n1)OC(F)(F)O2 (racemic) [Example 349, (R) and (S)—N-(amino(1-(2-hydroxyethyl)-1H-pyrazol-3-yl)(oxo)-λ^6-sulfaneylidene)-2-(2,2-difluoro-4,6-diisopropylbenzo[d][1,3]dioxol-5-yl)acetamide]	
0.2 to 1	CC(C)c1cc(C#N)c(F)c(C(C)C)c1CC(=O)N=S(N)(=O)c1sc(C(C)(C)O)nc1CO (racemic) [Example 352, (S) and (R)—N-(amino(4-(hydroxymethyl)-2-(2-hydroxypropan-2-yl)thiazol-5-yl)(oxo)-λ^6-sulfaneylidene)-2-(4-cyano-3-fluoro-2,6-diisopropylphenyl)acetamide]	
5 to 30	CC(C)c1cc(C#N)c(F)c(C(C)C)c1CC(=O)N=S(N)(=O)c1sc(C(C)(C)O)nc1CO (racemic) [Example 353, (S) and (R)—N-(amino(4-(hydroxymethyl)-2-(2-hydroxypropan-2-yl)thiazol-5-yl)(oxo)-λ^6-sulfaneylidene)-2-(4-cyano-3-fluoro-2,6-diisopropylphenyl)acetamide]	
0.2 to 1	CC(C)c1cc(F)cc(C(C)C)c1CC(=O)N=S(N)(=O)c1sc(C(C)(C)O)nc1CO (racemic) [Example 356, (R) and (S)—N-(amino(4-(hydroxymethyl)-2-(2-hydroxypropan-2-yl)thiazol-5-yl)(oxo)-λ^6-sulfaneylidene)-2-(4-fluoro-2,6-diisopropylphenyl)acetamide]	
5 to 30	CC(C)c1cc(F)cc(C(C)C)c1CC(=O)N=S(N)(=O)c1sc(C(C)(C)O)nc1CO (racemic) [Example 357, (R) and (S)—N-(amino(4-(hydroxymethyl)-2-(2-hydroxypropan-2-yl)thiazol-5-yl)(oxo)-λ^6-sulfaneylidene)-2-(4-fluoro-2,6-diisopropylphenyl)acetamide]	
	CNCc1ccc(S(N)(=O)=NC(=O)Cc2c(-c3ccccc3)ccc3c2CCC3)cc1 (racemic) [Example 380, (R) and (S)—N-(amino(4-((methylamino)methyl)phenyl)(oxo)-λ^6-sulfaneylidene)-2-(5-phenyl-2,3-dihydro-1H-inden-4-yl)acetamide]	IC50 (Homo sapiens, THP-1, Table B2, cells printed as numeric bound): > 30 µM
	CNCc1ccc(S(N)(=O)=NC(=O)Cc2c(-c3ccccc3)ccc3c2CCC3)cc1 (racemic) [Example 381, (R) and (S)—N-(amino(4-((methylamino)methyl)phenyl)(oxo)-λ^6-sulfaneylidene)-2-(5-phenyl-2,3-dihydro-1H-inden-4-yl)acetamide]	IC50 [1]: 5 to 30 µM
	COc1ccc(C(C)(C)O)cc1S(N)(=O)=NC(=O)Cc1c(C(C)C)cc(C#N)cc1C(C)C (racemic) [Example 387, (R) and (S)—N-(amino(5-(2-hydroxypropan-2-yl)-2-methoxyphenyl)(oxo)-λ^6-sulfaneylidene)-2-(4-cyano-2,6-diisopropylphenyl)acetamide]	IC50 [1]: 5 to 30 µM
